Test results published in patent US12239643B2, “Therapeutic agent for inflammatory diseases, autoimmune diseases, fibrotic diseases, and cancer diseases” (MEIJI SEIKA PHARMA CO., LTD., priority 2018, dated 2025).
Where two headings read alike, the source gives them in different places.

What was measured:
[1] = system: TGF-β; experiment: TGF-β inhibitory activity using THP1 cells differentiated into macrophages; format: cell-based; conditions: Homo sapiens, read-out: TFG-β Inhibitory Activity (Test Example 6)
Protocol: The TGF-β inhibitory activity was measured using THP1 cells as follows. First, THP1 cells were seeded on a 24-well culture plate at […], and culture was carried out overnight at 37° C. and 5% CO2 in RPMI-1640 medium (containing 10% fetal bovine serum, penicillin, and streptomycin) supplemented with 100 nM phorbol myristate acetate. After that, the cells were differentiated into macrophages by changing to RPMI-1640 medium without phorbol myristate acetate, followed by further culture at 37° C. under 5% CO2 overnight. Next, the THP1 culture plate was washed once with PBS(−) 1 mL/well, and then the test compound and lipopolysaccharide (final concentration 1 μg/mL) were added, followed by culture at 37° C. under 5% CO2 for about 7 hours. After culturing, the entire amount of the medium was collected, and the amount of TGF-β in the centrifuged supernatant was quantified by the sandwich ELISA method. The non-addition of lipopolysaccharide was used as a blank, and the control was obtained by adding only dimethyl sulfoxide instead of the test compound, and the inhibition rate of the test compound against the control was calculated by the following formula. Inhibition Rate (%)={1−(Value at Addition of Each Test Compound−Blank Value)/(Control Value−Blank Value)}×100
In addition, the TGF-β inhibitory activity (concentration for the inhibition rate of 50%) of the test compound was calculated from the inhibition curves based on the inhibition rate for various concentrations of the test compound.
The measurement results obtained by measuring the TFG-β inhibitory activity (50% inhibitory concentration) of the test compounds by the above method were evaluated in accordance with the following evaluated basis; A: less than 1 μM, and B: 1 μM or more.

[2] = system: oxazolone-induced auricle edema, BALB/c mice; experiment: Hapten repeated application mouse chronic dermatitis model (oral, topical); format: in vivo; conditions: for Mouse Chronic Dermatitis Model (Test Example 8), Oral: edema suppression rate: 0.3 to 10 mg/kg twice a day for 10 days; for Mouse Chronic Dermatitis Model (Test Example 8), Topical: edema suppression rate: 20 μL of 0.3 to 3% solution once or twice a day for 10 days
In short: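 Female BALB/c mice aged 7–8 weeks were sensitised abdominally with 3% oxazolone, then challenged on both ears with 1% oxazolone. From week 1, test compound was given for 10 days orally at 0.3–10 mg/kg twice daily in 0.5% MC, or topically at 0.3–3% once or twice daily. Ear-thickness change measured by dial gauge gave edema suppression versus vehicle control.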

[3] = Hepatic metabolic stability (rat liver microsome method); format: in vitro ADME; conditions: rat liver microsomes 0.5 mg/mL, test substance 1 μM, NADPH 1 mM, 37° C., 30 minutes
In short: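 Scored by % parent left after 30 min (30 min/0 min ×100, LC-MS), banded A ≥75%, B 60–<75%, C 45–<60%, D <45%. Incubation: 1 μM compound, 0.5 mg/mL rat microsomes, pH 7.4 phosphate buffer, 37° C, 5 min preincubation, NADPH 1 mM started, acetonitrile quench.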

[4] = THP-1, THP1 cells differentiated into macrophages, lipopolysaccharide 1 μg/mL, about 7 hours

For CC(C)(O)C(F)(F)Oc1ccc(-c2nccs2)c2oc(N3CC4CC(C3)N4)nc12 [Example 248, 1-((2-(3,6-Diazabicyclo[3.1.1]heptan-3-yl)-7-(thiazol-2-yl)benzo[d]oxazol-4-yl)oxy)-1,1-difluoro-2-methylpropan-2-ol], the IC50 [1, 4] was less than 1 µM, the “Mouse Chronic Dermatitis Model (Test Example 8), Oral: edema suppression rate” value [2] was “A (A: 70% or more)” and the “Mouse Chronic Dermatitis Model (Test Example 8), Topical: edema suppression rate” value [2] was “A (A: 100% or more)”. For the same compound, the “Residual ratio (% remaining for 30-minute reaction)” value [3] was “A (A: a % remaining rate of 75% or more)”.

In the case of CCOc1cc([C@@H](CS(C)(=O)=O)N2C(=O)c3cccc(NC(C)=O)c3C2=O)ccc1OC [apremilast, reference compound], the IC50 ([1]; THP-1, 7 h) is reported as greater than 1 µM and the “Mouse Chronic Dermatitis Model (Test Example 8), Oral: edema suppression rate” value [2] is reported as “B (B: 40% or more and less than 70%)”.

With FC(F)(F)Oc1ccc(-c2nccs2)c2oc(N3CC4CC(C3)N4)nc12 [Example 29, 2-(3,6-Diazabicyclo[3.1.1]heptan-3-yl)-7-(thiazol-2-yl)-4-(trifluoromethoxy)benzo[d]oxazole] the IC50 [1, 4] was less than 1 µM, the “Mouse Chronic Dermatitis Model (Test Example 8), Oral: edema suppression rate” value [2] was “A (A: 70% or more)” and the “Mouse Chronic Dermatitis Model (Test Example 8), Topical: edema suppression rate” value [2] was “A (A: 100% or more)”. For the same compound, the “Residual ratio (% remaining for 30-minute reaction)” value [3] was “B (B: 60% or more and less than 75%)”.

For CC(O)C(F)(F)Oc1ccc(-c2nccs2)c2oc(N3CC4CC(C3)N4)nc12 (single isomer, unassigned) [Example 252, 1-((2-(3,6-Diazabicyclo[3.1.1]heptan-3-yl)-7-(thiazol-2-yl)benzo[d]oxazol-4-yl)oxy)-1,1-difluoropropan-2-ol], the “Mouse Chronic Dermatitis Model (Test Example 8), Oral: edema suppression rate” value [2] was “A (A: 70% or more)”, the “Mouse Chronic Dermatitis Model (Test Example 8), Topical: edema suppression rate” value [2] was “A (A: 100% or more)” and the “Residual ratio (% remaining for 30-minute reaction)” value [3] was “A (A: a % remaining rate of 75% or more)”.
